The values that follow come from patent US12358886B2, “Heterocyclic compounds for use in the treatment of cancer” (Artios Pharma Limited, priority 2019, dated 2025).

Broadly, the IC50 is the concentration that inhibits the measured activity by half. Read a low IC50 as inhibition by little substance.

The test deals with Polθ protein (amino acids 2-2590) (Homo sapiens, UniProt O75417). As to the kind of experiment: Polθ full length enzyme potency assay (PicoGreen). The conditions noted are these: Polθ IC50 (nM), full length N-His, C-term FLAG tagged Polθ, PicoGreen fluorescence, 12 point concentration response.
Sequence of Polθ protein (amino acids 2-2590) (O75417 2-2590): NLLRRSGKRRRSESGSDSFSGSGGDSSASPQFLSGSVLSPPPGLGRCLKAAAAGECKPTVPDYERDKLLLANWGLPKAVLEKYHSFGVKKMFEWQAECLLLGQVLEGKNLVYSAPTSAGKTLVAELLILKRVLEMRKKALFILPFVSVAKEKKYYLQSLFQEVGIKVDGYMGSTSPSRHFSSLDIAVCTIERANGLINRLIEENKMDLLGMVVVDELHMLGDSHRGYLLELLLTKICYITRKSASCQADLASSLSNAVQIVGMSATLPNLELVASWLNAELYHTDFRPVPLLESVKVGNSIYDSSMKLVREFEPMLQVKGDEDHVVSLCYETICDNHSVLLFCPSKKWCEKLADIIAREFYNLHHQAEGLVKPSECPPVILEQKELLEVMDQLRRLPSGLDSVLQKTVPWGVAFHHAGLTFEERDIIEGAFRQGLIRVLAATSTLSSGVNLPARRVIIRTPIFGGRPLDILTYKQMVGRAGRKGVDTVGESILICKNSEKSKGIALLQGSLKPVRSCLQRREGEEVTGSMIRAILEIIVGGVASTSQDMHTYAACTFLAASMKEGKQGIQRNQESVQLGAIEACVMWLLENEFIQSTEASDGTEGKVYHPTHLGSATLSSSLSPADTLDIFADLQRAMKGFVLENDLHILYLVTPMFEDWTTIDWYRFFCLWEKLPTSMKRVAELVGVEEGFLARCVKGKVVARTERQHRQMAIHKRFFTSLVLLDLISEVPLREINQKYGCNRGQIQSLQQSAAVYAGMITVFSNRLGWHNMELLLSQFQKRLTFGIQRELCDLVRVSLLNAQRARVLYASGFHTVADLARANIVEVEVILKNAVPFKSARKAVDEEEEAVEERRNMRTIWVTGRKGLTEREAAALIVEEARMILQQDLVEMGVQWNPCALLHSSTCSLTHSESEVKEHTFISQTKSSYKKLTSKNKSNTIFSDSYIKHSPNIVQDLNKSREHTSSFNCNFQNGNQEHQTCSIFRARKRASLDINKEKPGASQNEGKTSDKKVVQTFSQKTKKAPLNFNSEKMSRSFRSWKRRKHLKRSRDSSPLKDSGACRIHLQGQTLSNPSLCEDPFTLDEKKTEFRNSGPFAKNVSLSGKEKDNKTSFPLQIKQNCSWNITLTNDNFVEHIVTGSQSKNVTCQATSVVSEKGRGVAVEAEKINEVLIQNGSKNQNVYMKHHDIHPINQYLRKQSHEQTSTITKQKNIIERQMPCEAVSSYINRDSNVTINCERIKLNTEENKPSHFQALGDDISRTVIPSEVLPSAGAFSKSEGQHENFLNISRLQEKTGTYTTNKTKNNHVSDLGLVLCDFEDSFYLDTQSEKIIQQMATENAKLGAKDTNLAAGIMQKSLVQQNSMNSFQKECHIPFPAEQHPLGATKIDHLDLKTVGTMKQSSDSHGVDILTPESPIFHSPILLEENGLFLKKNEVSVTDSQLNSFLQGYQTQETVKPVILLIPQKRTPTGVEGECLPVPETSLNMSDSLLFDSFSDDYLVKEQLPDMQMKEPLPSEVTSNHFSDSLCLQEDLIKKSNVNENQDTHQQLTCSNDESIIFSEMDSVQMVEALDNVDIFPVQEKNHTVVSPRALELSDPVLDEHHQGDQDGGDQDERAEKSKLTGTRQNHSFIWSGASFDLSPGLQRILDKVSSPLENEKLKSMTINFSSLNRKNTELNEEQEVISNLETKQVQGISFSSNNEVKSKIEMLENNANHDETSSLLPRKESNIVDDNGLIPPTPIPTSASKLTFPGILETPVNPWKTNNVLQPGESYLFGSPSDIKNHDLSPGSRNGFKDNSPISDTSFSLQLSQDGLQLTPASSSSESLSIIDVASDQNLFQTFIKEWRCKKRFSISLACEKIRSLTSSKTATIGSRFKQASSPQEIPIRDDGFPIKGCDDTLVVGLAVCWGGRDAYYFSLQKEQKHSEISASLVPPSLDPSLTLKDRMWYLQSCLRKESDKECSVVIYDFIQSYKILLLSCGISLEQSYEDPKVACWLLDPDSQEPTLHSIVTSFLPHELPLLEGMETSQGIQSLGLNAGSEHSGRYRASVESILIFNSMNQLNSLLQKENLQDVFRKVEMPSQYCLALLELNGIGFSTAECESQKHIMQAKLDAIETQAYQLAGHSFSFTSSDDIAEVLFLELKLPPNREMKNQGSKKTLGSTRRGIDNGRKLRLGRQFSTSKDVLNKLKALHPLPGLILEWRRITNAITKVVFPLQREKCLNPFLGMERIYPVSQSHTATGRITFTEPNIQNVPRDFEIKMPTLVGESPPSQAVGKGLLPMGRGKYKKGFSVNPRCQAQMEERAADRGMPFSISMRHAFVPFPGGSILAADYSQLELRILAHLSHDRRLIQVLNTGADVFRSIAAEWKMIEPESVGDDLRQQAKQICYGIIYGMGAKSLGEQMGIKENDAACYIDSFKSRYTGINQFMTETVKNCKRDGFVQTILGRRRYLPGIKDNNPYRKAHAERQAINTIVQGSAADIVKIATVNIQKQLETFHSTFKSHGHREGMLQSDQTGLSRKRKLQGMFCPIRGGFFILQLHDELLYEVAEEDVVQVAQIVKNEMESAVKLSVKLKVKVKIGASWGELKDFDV
`CCc1cc(C)nc(N2C(=O)OC[C@H]2C(=O)N(C)c2ccc(F)c(Cl)c2)c1` [Example 119, (S)—N-(3-Chloro-4-fluorophenyl)-3-(4-ethyl-6-methylpyridin-2-yl)-N-methyl-2-oxooxazolidine-4-carboxamide] registered an IC50 of 39 nM.
`Cc1cc(C(F)(F)F)cc(N2C(=O)NC[C@H]2C(=O)N(C)c2ccc3cnn(C)c3c2)n1` [Example 235, (S)—N-Methyl-N-(1-methyl-1H-indazol-6-yl)-3-(6-methyl-4-(trifluoromethyl)pyridin-2-yl)-2-oxoimidazolidine-4-carboxamide]: the IC50 amounted to 27 nM.
`Cc1cc(C(F)(F)F)cc(N2C(=O)N(CCS(=O)(=O)N(C)C)C[C@H]2C(=O)N(C)c2ccc(F)c(Cl)c2)n1` [Example 181, (S)—N-(3-Chloro-4-fluorophenyl)-1-(2-(N,N-dimethylsulfamoyl)ethyl)-N-methyl-3-(6-methyl-4-(trifluoromethyl)pyridin-2-yl)-2-oxoimidazolidine-4-carboxamide] yielded an IC50 of 45 nM.
In the case of `Cc1cc(C(F)(F)F)cc(N2C(=O)N(CCN3CC[C@H](F)C3)C[C@H]2C(=O)N(C)c2ccc(F)c(Cl)c2F)n1` [Example 205, (S)-N-(3-Chloro-2,4-difluorophenyl)-1-(2-((S)-3-fluoropyrrolidin-1-yl)ethyl)-N-methyl-3-(6-methyl-4-(trifluoromethyl)pyridin-2-yl)-2-oxoimidazolidine-4-carboxamide] it was 6 nM.
